This note sets out measurements from patent publication US9045505B2, “Nitric oxide donors” (University of Otago, priority 2006, dated 2015).

The target of this assay is T1, cytochrome c oxidase (Rattus norvegicus, UniProt P05503).
T1 construct: from tissue; host or cells: rat liver mitochondria
Briefly: NO generation and respiration in isolated liver mitochondria (NO and O2 electrodes). Format: biochemical. To be noted: succinate. The procedure: FIG. 9 is a series of traces and graphs showing membrane potential-dependent MitoSNAP mitochondrial uptake and NO^• generation. (a-d) Liver mitochondria were incubated in KCl medium supplemented with rotenone in a stirred 3 ml chamber and electrodes were used to measure the concentrations of O2 and NO^• simultaneously. Where indicated succinate (10 mM), OxyHb (5 μM) or FCCP (500 nM) were added. For (a) and (b) 2 mg mitochondrial protein/ml and 20 μM MitoSNAP (a) or SNAP (b) were used. For (c) and (d) 0.5 mg mitochondrial protein/ml and 5 μM MitoSNAP were used. There was no effect of 5 μM MitoNAP on respiration or NO^• production. All traces are from typical experiments repeated at least twice. (e-f) Mitochondria (1 mg protein) were incubated in 1 ml KCl medium without neocuproine or DTPA, supplemented with rotenone and succinate in the absence (e) or presence (f) of FCCP (500 nM). Mitochondria were then pelleted by centrifugation (10,000×g) then aliquots of the supernatant (700 μl) were mixed with 700 μl 0.1% TFA and analyzed by RP-HPLC. The amount of MitoSNAP and MitoNAP were calculated as the percentage of their peak areas relative to the sum of both peak areas.
Nitrite, nitric oxide and S-nitrosothiol measurements. Nitrite was analyzed by the Griess assay (Molecular Probes). Nitric oxide was measured using an NO^• electrode (World Precision Instruments Ltd, UK) connected to an Apollo 4000 Free Radical Analyser. The electrode was inserted into a stirred, sealed 3 ml chamber with a Clark type O2 electrode (Rank Brothers, UK) built into its base and was thermostatted at 37° C. The NO^• electrode was calibrated by adding SNAP to argon-purged, saturated CuCl. OxyHb was prepared by reduction of bovine methemoglobin with sodium dithionite. Protein S-nitrosothiols were measured using a chemiluminescence assay in an EcoMedics CLD 88 Exhalyzer (Annex, Herts, UK) (Feelisch, M. et al. Concomitant S—, N—, and heme-nitros(yl)ation in biological tissues and fluids: implications for the fate of NO in vivo. FASEB. J. 16, 1775-85 (2002)).
Mitochondrial incubations were usually in KCl buffer (120 mM KCl, 10 mM HEPES, 1 mM EGTA, 100 μM N,N-bis(2-bis[carboxymethyl]aminoethyl) glycine (DTPA) and 10 μM neocuproine, pH 7.2) with 10 mM succinate and 4 μg/ml rotenone in the dark at 37° C., unless stated otherwise. An electrode selective for the TPP moiety of MitoSNAP and MitoNAP was made and used as described previously (Asin-Cayuela, J., Manas, A. R., James, A. M., Smith, R. A. & Murphy, M. P. Fine-tuning the hydrophobicity of a mitochondria-targeted antioxidant. FEBS Letts. 571, 9-16 (2004)). Respiration rates were measured in a Clark type O2 electrode (Rank Brothers, UK). To measure GSH and GSSG, mitochondria (1 mg protein/ml) were incubated with 0-10 μM MitoSNO1 or MitoNAP for 10 min, pelleted by centrifugation and the GSH and GSSG contents assessed by the recycling assay (Scarlett, J. L., Packer, M. A., Porteous, C. M. & Murphy, M. P. Alterations to glutathione and nicotinamide nucleotides during the mitochondrial permeability transition induced by peroxynitrite. Biochem. Pharmacol. 52, 1047-1055 (1996)). The measurement of exposed mitochondrial protein thiols is described below.
Following its accumulation within mitochondria MitoSNAP interacted with the GSH-rich matrix to release NO^• which then affected respiration by competitively inhibiting O2 consumption at cytochrome c oxidase. […] Mitochondria were incubated with the complex I inhibitor rotenone in the absence of substrate to prevent Δψ generation, and addition of 20 μM MitoSNAP produced a small amount of NO^•, presumably due to MitoSNAP diffusion into the mitochondrial matrix and reaction with GSH (FIG. 9a).
To explore further the Δψ-dependence of NO^• production by MitoSNAP, studies with decreased concentrations (5 μM) and fewer mitochondria (0.5 mg protein/ml) were undertaken (FIGS. 9c & d). […]

Setting [1] is: 20 μM, 2 mg mitochondrial protein/ml.
[2] abbreviates: 5 μM, 0.5 mg mitochondrial protein/ml.

With `CC(=O)NC(C(=O)O)C(C)(C)SN=O` (racemic) [SNAP, S-nitroso-N-acetyl-DL-penicillamine, reference compound], under setting [1], the “NO production by energized mitochondria” value is “negligible” and the effect on respiration entry is listed as “did not affect respiration”.

In the case of `CC(=O)NC(C(=O)NCCCCC[P+](c1ccccc1)(c1ccccc1)c1ccccc1)C(C)(C)SN=O.CS(=O)(=O)[O-]` (stereo not drawn) [MitoSNAP, [5-(2-acetylamino-3-methyl-3-nitrosothio-butyrylamino)-penty1]-triphenylphosphonium methanesulfonate], under setting [2], the “NO production by energized mitochondria” value is reported as “dramatic increase in NO^• production” and the effect on respiration result is “decreased respiration”. For the same compound, under setting [1], the “NO production by energized mitochondria” value was “rapid increase in NO^• production” and the effect on respiration entry was “respiration rate slowed”.
